Reference: patent US9274101B2 (BIOLOG, Inc., priority 2001, dated 2016)

Tests used:
ten strains of E. coli = type: cell-based, Escherichia coli; further: key: +: indicates that the organism tested was capable of utilizing the carbon source listed; −: indicates that the organism tested was not capable of utilizing the carbon source listed; indicates weak positive reactions
HL-60 cells = HL-60 cells in PM1 and PM2 plates, MTS/MPMS color, % negative control; type: cell-based, human; conditions: for response of HL-60 cells: in the presence of added pyruvate
HepG2 cells = HepG2 cells cultured on CYTODEX 3 microcarriers, energy sources; type: cell-based, human; conditions: Homo sapiens, HepG2, 68 h, read-out: Responses of HepG2 Cells Cultured on Microcarriers After 68 hours in Culture and a 4 hour Color Development Period; for activity at 30 µM: Conc. 0.03 mM; for activity at 100 µM: Conc. 0.10 mM; for activity at 330 µM: Conc. 0.33 mM; for activity at 1000 µM: Conc. 1.00 mM; for activity at 3300 µM: Conc. 3.3 mM; for activity at 10000 µM: Conc. 10 mM; for activity at 15000 µM: Conc. 15 mM; for activity at 20000 µM: Conc. 20 mM
Method: In this Example, methods for testing adherent cells cultured in suspension, for their ability to use multiple carbon sources are described. HepG2 cells were cultured as described in Example 30.
HepG2 cells were harvested by trypsinization for 3 minutes in 0.25% trypsin-1 mM EDTA and resuspended in an equal volume of culture medium. A viable cell count was obtained by trypan blue exclusion and the appropriate volume of the cell suspension to have 2.7×10^6 cells/0.1 gm CYTODEX 3 (Sigma C3275) microcarrier beads was determined. Microcarrier beads had been previously prepared by 1) rehydration in calcium-magnesium free (CMF) DPBS for 3 hours, 2) autoclaving for 15 minutes, and 3) washing twice in MEM without serum. The cell suspension was added to the beads in a 50 mL tube, and the volume adjusted to 5 mL. Cells were allowed to attach for 1 hour in an atmosphere of 5% CO2, 90-100% humidity, and 37° C., with resuspension every 15 minutes. The microcarriers were transferred to a 100×15 mm Petri dish in a total volume of 20 mL. Cultures were maintained as stationary cultures until used for assay.
The thixotropic suspending agent, methylcellulose (1500 cps, Sigma M0555), was included in the medium to keep the microcarriers suspended so that they could be accurately pipetted. The methylcellulose was prepared by autoclaving in 20 mL tissue culture water for 30 minutes, then mixing by shaking for 1 hour. The initial concentration of methylcellulose was […]. The methylcellulose was then diluted 1:1 in 2× DME with or without glucose, then supplemented with 10% HI FBS; this yields a methylcellulose concentration of 1.36%. Beads were transferred to a 50 mL tube, allowed to settle and resuspended in DPBS. The washed beads were then resuspended in DME with 10% HI FBS and penicillin-streptomycin but without glucose, L-glutamine, sodium pyruvate, or phenol red. An equal volume of 1.36% methylcellulose was added and mixed by pipetting.
For the assay, 70 μL of DME with 10% HI FBS and penicillin-streptomycin but without glucose, L-glutamine, sodium pyruvate, or phenol red were added to each well, followed by 30 μL of the appropriate dilution of each test energy source. Stocks of 133 mM of each test chemical were prepared in tissue culture grade water, sterile filtered, and dilutions were prepared in a master plate so that, upon dilution into a regular 96-well MICROPLATE a total well volume of 200 μL, the final concentrations would be 0.033 to 20 mM. Negative control wells received 30 μL of tissue culture grade water. One hundred μL of beads were pipetted into each well. For each plate containing energy sources and cells, a second, control plate containing only energy sources was prepared. Plates were incubated at 5% CO2, 90-100% humidity, and 37° C. for 68 hours prior to addition of the MTS/MPMS colorometric reagent (10 μL/well). The color formed in each well 4-8 hours after addition of the colorimetric reagent, was measured with a plate reader at 490 nm with a reference wavelength of 650 nm. OD values from the control plate were subtracted from the OD values obtained with cells prior to normalizing the data to % negative control (cells without added energy source).

E. coli MG1655 [1] = type: cell-based, Escherichia coli
[2] = system: Salmonella typhimurium auxotrophs hisF645 and pyrCΔ73; type: cell-based
A549 cells [3] = test: Substrate utilization by A549 cells at increasing serum, with and without free amino acids; type: cell-based; conditions: varying FCS, presence and absence of free amino acids (FIG. 11)
Method: Briefly, A549 cells were suspended in RPMI-salts+RPMI-vitamins+1× Pen/Strep with or without RPMI-amino acids at 400,000 cells/mL and dispensed in 50 uL to wells containing a testing substrates (e.g., inosine, pyruvic acid, glucose, L-glutamine, L-arginine, etc.) and FCS to achieve the indicated final concentrations. The cells were incubated for 2 days at 37° C. under 5% CO2-95% air (pre-incubation phase), before a redox dye mix was added. The cells were incubated for an additional 5 hr at 37° C. under 5% CO2-95% air (incubation phase), before color development was measured.

[4] = system: Saccharomyces cerevisiae (BY4741); test: Nutrient stimulation in EA MICROPLATE without methionine; type: cell-based; conditions: medium without methionine, 30° C., 2 days
E. coli MG1655 [5] = type: cell-based, Escherichia coli; remark: listed apart in the source
TK-1 cells = TK-1 cells in PM1 and PM2 plates, with or without 0.5 mM sodium pyruvate; type: cell-based, mouse; conditions: in the presence of 0.5 mM sodium pyruvate
Method: In this Example, methods for testing a murine T lymphoma cells (Butcher et al., Eur. J. Immunol., 10:556-561 [1980]), for their ability to use multiple carbon sources are described. The methods used to culture the TK-1 lymphoma cell line were similar to those used to culture HL-60 cells, as described in Example 27.
TK-1 cells were grown in Falcon tissue culture flasks with vented tops. Culture medium was RPMI 1640 medium (Invitrogen 11875) with 4.5 g/L glucose, 2 mM L-glutamine, 1 mM sodium pyruvate, 0.1 mM nonessential amino acids (NEAA), 0.05 mM 2-mercaptoethanol (2ME), 2 g/L sodium bicarbonate, 5 mg/L phenol red, 50 U/mL penicillin, 50 μg/mL streptomycin, and 10% (v/v) heat inactivated fetal bovine serum (HI FBS, Invitrogen 16140). The cells were seeded at 3×10^5/mL, subcultured at 3 days after initiation of culture to 10^6 cells/mL and used 24 hours later. During all incubations, the cells were kept in an atmosphere of 5% CO2, 90-100% humidity, and 37° C.
A viable cell count was obtained by trypan blue exclusion and an appropriate volume of the cell suspension was placed in a polypropylene centrifuge tube. The cells were washed in DPBS and then resuspended to two-thirds the final volume needed in Dulbecco ? s Modified Eagle ? s Medium (DME, Sigma D5030) with the supplements listed in Table 17, as well as 2-ME, sodium pyruvate and NEAA, and including 10% HI FBS, but without glucose, L-glutamine, sodium pyruvate, and phenol red. This medium is termed DME-RTK. An aliquot was counted by trypan blue exclusion and the cell density was adjusted to 1×10^6/mL. Fifty μL of DME-RTK were added to each well of the appropriate number of half area, 96-well plates (PM1 and PM2 MICROPLATE testing plates). The cells were divided into two lots and one lot received a 1/100 dilution of 100 mM sodium pyruvate (final concentration, 0.5 mM). Cells from both lots were plated at a final cell density of 5×10^4/well (50 μL/well). For each plate containing chemicals and cells, a second, control plate containing only chemicals was prepared. Plates were incubated at 5% CO2, 90-100% humidity, and 37° C. for 1 hour prior to addition of the MTS/MPMS colorimetric reagent (5 μL/well). The color formed in each well 24 hours after addition of the colorimetric reagent, was measured with a plate reader at 490 nm with a reference wavelength of 650 nm. OD values from the control plate were subtracted from the OD values obtained with cells prior to normalizing the data to % negative control.

IMR-90 cells = test: Testing of IMR-90 cells in PM1a testing plates; type: cell-based; conditions: for cellular morphology (microscopic): approximately 4.5 hours at 37° C.
Method: IMR-90 cells were cultured in DMEM in 150 mm diameter petri dishes to near confluence under suitable conditions (e.g., 5% CO2, at 37° C.). The cells were harvested from 19 petri dishes, using the standard trypsin-EDTA procedure to detach the cells (i.e., 5 minute treatment with trypsin-EDTA), pooled and centrifuged at 1000×g for 5 minutes at 2-8° C., and resuspended in HBSS without phenol red. The cells were again centrifuged and resuspended in 24 ml inoculating fluid (IF-h). The cell density as determined by measurement using a Coulter Counter was about 3,000,000 cells/ml. Two-fold serial dilutions were prepared using prewarmed inoculating fluid, by mixing 12 ml of cell suspension with 12 ml IF-h, to produce six suspensions having 3,000,000 cells/ml (undiluted), 1,500,000 cells/ml, 750,000 cells/ml, 375,000 cells/ml, 187,500 cells/ml, and 93,750 cells/ml. A “no cell” control was also prepared, using 12 ml inoculating fluid. Each of the cell suspensions was then immediately inoculated into a PM1a PHENOTYPE MICROARRAY testing panel (Biolog), with about 100 μl of suspension added per well.
After approximately 4.5 hours of incubation at 37° C. in a CO2 incubator, the PHENOTYPE MICROARRAY testing panels were visually examined. […] The amount of background pink color was somewhat varied, depending upon the cell concentration. At the highest cell densities, there was a light pink color in all of the wells.

A549 cells [6] = test: Metabolic profile of A549 cells with 5% or 20% dialyzed or non-dialyzed FCS; type: cell-based; conditions: FCS 5% or 20%, dialyzed or not (FIG. 10)
Method: Briefly, A549 cells were suspended at 400,000 cells/mL in RPMI-salts+RPMI-vitamins+1× Pen/Strep (Penicillin/Streptomycin) without amino acids but containing either 5% or 20% dialyzed or non-dialyzed FCS. Cells were dispensed in 50 uL to wells containing a plurality of testing substrates (glycogen, glucose and pyruvate among others) at final concentrations of 20, 15, 10.5, 2.5 and 1.2 mM of each testing substrate. The cells were incubated for 2 days at 37° C. under 5% CO2-95% air (pre-incubation phase), before a redox dye mix was added. The cells were incubated for an additional 5 hr at 37° C. under 5% CO2-95% air (incubation phase), before color development was measured.

O=C(O)CC(O)(CC(=O)O)C(=O)O [Citric acid]
carbon source utilization (ten strains of E. coli): − | response in words (HL-60 cells; L-glutamine 13.7 mM (well E1), citric acid 10.4 mM (well F2)): inhibitory response | activity at 30 µM (HepG2 cells): 103% | activity at 100 µM (HepG2 cells): 111% | activity at 330 µM (HepG2 cells): 112% | activity at 1000 µM (HepG2 cells): 116% | activity at 3300 µM (HepG2 cells): 131% | activity at 10000 µM (HepG2 cells): 46.8% | activity at 15000 µM (HepG2 cells): 31.5% | activity at 20000 µM (HepG2 cells): 20.3%

OC[C@H]1O[C@@H](n2cnc3c(O)ncnc32)[C@H](O)[C@@H]1O [Inosine]
suitability as nitrogen source (growth, purple color) (E. coli MG1655 [1]): not suitable | growth stimulation (well color) [2]: turned weakly purple | carbon source utilization (ten strains of E. coli): + | rate of substrate use (dye reduction) (A549 cells [3]): used more rapidly in the presence of amino acids

CSCC[C@H](N)C(=O)O [L-methionine]
suitability as nitrogen source (growth, purple color) (E. coli MG1655 [1]): not suitable | stimulation of growth/respiration (pink color) [4]: increased pink color | suitability as sulfur source (growth, purple color) (E. coli MG1655 [5]): positive

O=C1CC[C@@H](C(=O)O)N1 [L-pyroglutamic acid]
response of TK-1 cells (TK-1 cells): gained responses | suitability as nitrogen source (growth, purple color) (E. coli MG1655 [1]): not suitable | response of HL-60 cells (HL-60 cells): unable to respond

CC(=O)C(=O)O [Pyruvic acid]
cellular morphology (microscopic) (IMR-90 cells): the cells looked healthy | dye reduction (A549 cells [6]): stimulated A549 cell mediated dye reduction | carbon source utilization (ten strains of E. coli): + | rate of substrate use (dye reduction) (A549 cells [3]): used more rapidly in the absence of amino acids

N[C@@H](CCC(=O)N[C@@H](CS)C(=O)NCC(=O)O)C(=O)O [glutathione (reduced form)]
suitability as nitrogen source (growth, purple color) (E. coli MG1655 [1]): not suitable | stimulation of growth/respiration (pink color) [4]: increased pink color | suitability as sulfur source (growth, purple color) (E. coli MG1655 [5]): positive

Cc1ncc(CO)c(CO)c1O [pyridoxine]
stimulation of growth/respiration (pink color) [4]: increased pink color

OC[C@H]1O[C@H](O)[C@H](O)[C@@H](O)[C@@H]1O [α-D-glucose]
color of well (IMR-90 cells; 24 hours of incubation): distinctly darker clump of red cells | cellular morphology (microscopic) (IMR-90 cells): the cells looked healthy | dye reduction (A549 cells [6]): stimulated A549 cell mediated dye reduction | carbon source utilization (ten strains of E. coli): + | activity at 30 µM (HepG2 cells): 96.3% | activity at 100 µM (HepG2 cells): 112% | activity at 330 µM (HepG2 cells): 126% | activity at 1000 µM (HepG2 cells): 122% | activity at 3300 µM (HepG2 cells): 132% | activity at 10000 µM (HepG2 cells): 110% | activity at 15000 µM (HepG2 cells): 84% | activity at 20000 µM (HepG2 cells): 50.3%

NCCCC(=O)O [γ-aminobutyric acid]
response of TK-1 cells (TK-1 cells): gained responses | response of HL-60 cells (HL-60 cells): unable to respond

glycogen
response of TK-1 cells (TK-1 cells): lost responses | dye reduction (A549 cells [6]): stimulated A549 cell mediated dye reduction
